# According to US11034648B2, “Cystobactamide derivatives” (priority 2017, dated 2021):
# Experiments:
# [1] = test system: E. coli WT-3 [gyrA(S83L,D87G)]; assay: microbe, parasite or virus in culture; format: cell-based
# Method in brief: (§1)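 Overnight cultures were diluted in cation-adjusted Müller-Hinton broth to 10^4-10^6 cfu/mL and grown with serially diluted compound (from DMSO stocks) for approx. 16 h at 30-37° C. MIC is the lowest concentration with no visible bacterial growth.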
# P. vulgaris = assay: MIC, microbroth dilution susceptibility assay (Table 2b); format: cell-based; settings: larger panel
# Procedure: (§2) Cystobactamid derivatives synthesized were tested against relevant Gram negative and positive bacteria of clinical interest. Experimental procedures used for the biological characterization of the compounds are the same as previously described in WO 2016/082934.
# (§3) Bacterial strains used in susceptibility assays (minimum inhibitory concentration, MIC) were either part of our internal strain collection or purchased from the German Collection of Microorganisms and Cell Cultures (Deutsche Sammlung von Mikroorganismen und Zellkulturen, DSMZ) and the American Type Culture Collection (ATCC). The susceptible E. coli strain (WT) and fluoroquinolone-resistant mutants E. coli WT-3 and WT-III were kindly provided by Prof Dr. P. Heisig, Pharmaceutical Biology and Microbiology, University of Hamburg, Germany. The efflux-deficient strain P. aeruginosa ΔmexAB was kindly provided by Prof Dr. S. Häußler, Institute for Molecular Bacteriology, TWINCORE, Hannover, Germany. All compounds were prepared as DMSO stocks and MIC values were determined in standard microbroth dilution assays in 96-well MTPs as described in Baumann et al., Angew Chem Int Ed Engl. 2014; 53(52):14605-9. In brief, overnight cultures of bacteria were diluted in either tryptic soy broth (TSB: 1.7% peptone casein, 0.3% peptone soymeal, 0.25% glucose, 0.5% NaCl, 0.25% K2HPO4; pH 7.3; S. pneumoniae and E. faecalis) or cation-adjusted Müller-Hinton Broth (BBL™, BD; all other bacteria) and adjusted to 10^4-10^6 cfu/mL. Bacteria were grown in the presence of the derivatives in serial dilution for approx. 16 h at 30-37° C. MIC values were determined and were defined as the antibiotic concentration at which no visual growth of bacteria was observed.
# E. faecalis = assay: as above; format: cell-based; settings: larger panel
# Procedure: as §2, §3
# P. aeruginosa ESBL 1 = assay: as above; format: cell-based; settings: larger panel
# Procedure: as §2, §3
# E. cloacae = assay: as above; format: cell-based; settings: larger panel
# Procedure: as §2, §3
# S. epidermidis = assay: as above; format: cell-based; settings: larger panel
# Procedure: as §2, §3
# A. baumannii = assay: as above; format: cell-based; settings: larger panel
# Procedure: as §2, §3
# C. freundii = assay: as above; format: cell-based; settings: larger panel
# Procedure: as §2, §3
# S. marcescens = assay: as above; format: cell-based; settings: larger panel
# Procedure: as §2, §3
# E. aerogenes = assay: as above; format: cell-based; settings: larger panel
# Procedure: as §2, §3
# P. aeruginosa ESBL 2 = assay: as above; format: cell-based; settings: larger panel
# Procedure: as §2, §3
# P. mirabilis = assay: as above; format: cell-based; settings: larger panel
# Procedure: as §2, §3
# K. pneumoniae = assay: as above; format: cell-based; settings: larger panel
# Procedure: as §2, §3
# E. coli WT = assay: MIC, microbroth dilution susceptibility assay; format: cell-based
# Method in brief: as §1
# [2] = test system: E. coli WT-III [marRΔ74bp]; format: cell-based; settings: fluoroquinolone-resistant mutant; Table 2a
# Procedure: as §2, §3
# E. coli ΔtolC = assay: microbe, parasite or virus in culture; format: cell-based; settings: Escherichia coli, 16 h, read-out: MIC E. coli ΔtolC, small panel, Tables 1a/1b; no visual growth after approx. 16 h
# Method in brief: as §1
# P. aeruginosa ΔmexAB = assay: microbe, parasite or virus in culture; format: cell-based; settings: Pseudomonas aeruginosa, 16 h, read-out: MIC P. aeruginosa ΔmexAB, efflux-deficient strain; small panel, Tables 1a/1b
# Method in brief: as §1
# E. coli gyrase = target: T1, E. coli gyrase (Escherichia coli, UniProt P0AES4+P0AES6); assay: E. coli gyrase supercoiling (sc) assay; format: biochemical; settings: supercoiling assay kit, agarose gel quantification; read-out: Ec gyrase sc IC50
# T1 construct: purchased Inspiralis
# Procedure: The target activity on E. coli gyrase was assessed as described in Baumann et al., Angew Chem Int Ed Engl. 2014; 53(52):14605-9 using a commercial supercoiling (sc) assay kit from Inspiralis according to the manufacturer's instructions. The samples were separated on 0.8% (w/v) agarose gels and relaxed and supercoiled plasmid was visualized by ethidium bromide staining. Half-inhibitory concentrations (IC50) were calculated after image analysis and quantification (ImageJ) based on sigmoidal curve fitting (OriginPro).
# P. aeruginosa DSM-46316 = assay: MIC, microbroth dilution susceptibility assay; format: cell-based; settings: Pseudomonas aeruginosa, DSM46316; large panel, Table 2a
# Method in brief: as §1
# K. pneumoniae DSM-30104 = assay: MIC, microbroth dilution susceptibility assay; format: cell-based; settings: Klebsiella pneumoniae, DSM30104; large panel, Table 2a
# Method in brief: as §1
# C. freundii DSM-30039 = assay: MIC, microbroth dilution susceptibility assay; format: cell-based; settings: Citrobacter freundii, DSM30039; large panel, Table 2a
# Method in brief: as §1
# E. faecalis ATCC-29212 = assay: MIC, microbroth dilution susceptibility assay; format: cell-based; settings: Enterococcus faecalis, ATCC29212; large panel, Table 2a; TSB
# Method in brief: as §1
# S. pneumoniae DSM-20566 = assay: MIC, microbroth dilution susceptibility assay; format: cell-based; settings: Streptococcus pneumoniae, DSM20566; large panel, Table 2a; TSB
# Method in brief: as §1
# P. vulgaris DSM-2140 = assay: MIC, microbroth dilution susceptibility assay; format: cell-based; settings: Proteus vulgaris, DSM2140; large panel, Table 2a
# Method in brief: as §1
# P. aeruginosa DSM-24600 = assay: MIC, microbroth dilution susceptibility assay; format: cell-based; settings: Pseudomonas aeruginosa, DSM24600; large panel, Table 2a
# Method in brief: as §1
# S. aureus Newman = assay: MIC, microbroth dilution susceptibility assay; format: cell-based; settings: Staphylococcus aureus, NEWMAN; small panel, Tables 1a/1b; read-out: MIC S. aureus Newman
# Method in brief: as §1
# S. aureus ATCC-29213 = assay: MIC, microbroth dilution susceptibility assay; format: cell-based; settings: Staphylococcus aureus, ATCC29213; large panel, Table 2a
# Method in brief: as §1
# P. aeruginosa WT PA14 = assay: MIC, microbroth dilution susceptibility assay; format: cell-based; settings: Pseudomonas aeruginosa, PA14, small panel, Tables 1a/1b; read-out: MIC P. aeruginosa WT PA14
# Method in brief: as §1
# P. mirabilis DSM-2140 = assay: MIC, microbroth dilution susceptibility assay; format: cell-based; settings: Proteus mirabilis, DSM2140; large panel, Table 2a
# Method in brief: as §1
# E. aerogenes DSM-30053 = assay: MIC, microbroth dilution susceptibility assay; format: cell-based; settings: Klebsiella aerogenes, DSM30053; large panel, Table 2a
# Method in brief: as §1
# S. marcescens DSM-30121 = assay: MIC, microbroth dilution susceptibility assay; format: cell-based; settings: Serratia marcescens, DSM30121; large panel, Table 2a
# Method in brief: as §1
# E. coli WT DSM-1116 = assay: MIC, microbroth dilution susceptibility assay; format: cell-based; settings: Escherichia coli, DSM1116; small panel, Tables 1a/1b; no visual growth after approx. 16 h; read-out: MIC E. coli WT DSM-1116
# Method in brief: as §1
# E. cloacae DSM-30054 = assay: MIC, microbroth dilution susceptibility assay; format: cell-based; settings: Enterobacter cloacae, DSM30054; large panel, Table 2a
# Method in brief: as §1
# S. epidermidis DSM-28765 = assay: MIC, microbroth dilution susceptibility assay; format: cell-based; settings: Staphylococcus epidermidis, DSM28765; large panel, Table 2a
# Method in brief: as §1
# A. baumannii DSM-30008 = assay: MIC, microbroth dilution susceptibility assay; format: cell-based; settings: Acinetobacter baumannii, DSM30008; large panel, Table 2a
# Method in brief: as §1
compound,measurement,setting,value
"COc1c(NC(=O)c2ccc(NC(=O)c3ccc(NC(=O)[C@H](CC#N)NC(=O)c4ccc(NC(=O)/C(C)=C/c5ccc(O)cc5)cc4)cc3)c(OC)c2O)ccc(C(=O)O)c1O [Alb, Albicidin, reference compound]","MIC E. coli WT-3 [gyrA(S83L, D87G)]","[1]; larger panel, Table 2b",0.06 µg/mL
same,MIC P. vulgaris,P. vulgaris,<0.03 µg/mL
same,MIC E. faecalis,E. faecalis,4 µg/mL
same,MIC P. aeruginosa ESBL 1,P. aeruginosa ESBL 1,16 µg/mL
same,MIC E. cloacae,E. cloacae,>64 µg/mL
same,MIC S. epidermidis,S. epidermidis,0.5 µg/mL
same,MIC A. baumannii,A. baumannii,>64 µg/mL
same,MIC C. freundii,C. freundii,<0.03 µg/mL
same,MIC S. marcescens,S. marcescens,>64 µg/mL
same,MIC E. aerogenes,E. aerogenes,>64 µg/mL
same,MIC P. aeruginosa ESBL 2,P. aeruginosa ESBL 2,16 µg/mL
same,MIC P. mirabilis,P. mirabilis,>64 µg/mL
same,MIC K. pneumoniae,K. pneumoniae,>64 µg/mL
same,MIC E. coli WT,"E. coli WT; larger panel, Table 2b",0.06 µg/mL
"CC(C)Oc1c(NC(=O)c2ccc(NC(=O)[C@H](CC(N)=O)NC(=O)c3ccc(NC(=O)c4ccc([N+](=O)[O-])cc4)cc3)cc2)ccc(C(=O)Nc2ccc(C(=O)O)cc2)c1O [Compound 28, (S)-4-(4-(4-(4-amino-2-(4-(4-nitrobenzamido)benzamido)-4-oxobutanamido)benzamido)-2-hydroxy-3-isopropoxybenzamido)benzoic acid]",MIC E. coli WT-III [marRΔ74bp],[2],0.06 µg/mL
same,MIC,E. coli ΔtolC,0.06 µg/mL
same,MIC,"[1]; Escherichia coli, read-out: MIC E. coli WT-3 [gyrA(S83L,D87G)]",0.25 µg/mL
same,MIC,P. aeruginosa ΔmexAB,1 µg/mL
same,IC50,E. coli gyrase,110 nM
same,MIC,P. aeruginosa DSM-46316,> 64 µg/mL
same,MIC,K. pneumoniae DSM-30104,> 64 µg/mL
same,MIC,C. freundii DSM-30039,0.06 µg/mL
same,MIC,E. faecalis ATCC-29212,2 µg/mL
same,MIC,S. pneumoniae DSM-20566,0.25 µg/mL
same,MIC,P. vulgaris DSM-2140,0.13 µg/mL
same,MIC,P. aeruginosa DSM-24600,> 64 µg/mL
same,MIC,S. aureus Newman,0.5 µg/mL
same,MIC,S. aureus ATCC-29213,0.5 µg/mL
same,MIC,P. aeruginosa WT PA14,> 64 µg/mL
same,MIC,P. mirabilis DSM-2140,> 64 µg/mL
same,MIC,E. aerogenes DSM-30053,> 64 µg/mL
same,MIC,"E. coli WT; Escherichia coli, large panel, Table 2a",0.06 µg/mL
same,MIC,S. marcescens DSM-30121,> 64 µg/mL
same,MIC,E. coli WT DSM-1116,0.13 µg/mL
same,MIC,E. cloacae DSM-30054,0.25 µg/mL
same,MIC,S. epidermidis DSM-28765,1 µg/mL
same,MIC,A. baumannii DSM-30008,0.25 µg/mL
